Organism: Rattus norvegicus
Assay: Open TG-GATES - Regimen: Single
Type: toxicity, organism-based, Sprague-Dawley
Set-up: regimen Single, gender Male, age 6 weeks
Conditions: in vivo, ip, 0.001 mg/kg, route intraperitoneal injection, dose 1 ug/Kg, dose level Low; for APTT / Bas / Eos / Fbg / Hb / Ht / Lym / MCH / MCHC / MCV / Mono / Neu / PT / Plat / RBC / Ret / WBC: tissue Blood; for KIDNEY_L / KIDNEY_R / KIDNEY_TOTAL: tissue Kidney; for LIVER: tissue Liver; for A/G / ALP / ALT / AST / BUN / CRE / Ca / Cl / DBIL / GLC / IP / K / LDH / Na / PL / RALB / TBIL / TC / TG / TP / gamma-GTP: tissue Plasma

Substance: H-KGDRLS-OH [TNF-ALPHA]
- TERMINAL_BW (3 h): 199 g
- APTT (3 h): 17.8 s
- Bas (3 h): 0.4%
- Eos (3 h): 0.4%
- Fbg (3 h): 267.2 mg/dL
- Hb (3 h): 12.9 g/dL
- Ht (3 h): 39.8%
- Lym (3 h): 65.8%
- MCH (3 h): 21.4 pg
- MCHC (3 h): 32.4%
- MCV (3 h): 65.8 fL
- Mono (3 h): 4.2%
- Neu (3 h): 28%
- PT (3 h): 15.4 s
- Plat (3 h): 115.7 x10_4/uL
- RBC (3 h): 605.4 x10_4/ul
- Ret (3 h): 9.7%
- WBC (3 h): 95.8 x10_2/uL
- KIDNEY_L (3 h): 0.9 g
- KIDNEY_R (3 h): 0.9 g
- KIDNEY_TOTAL (3 h): 1.8 g
- LIVER (3 h): 9.3 g
- A/G (3 h): 0.9
- ALP (3 h): 1460 IU/L
- ALT (3 h): 47.8 IU/L
- AST (3 h): 77.2 IU/L
- BUN (3 h): 10.4 mg/dL
- CRE (3 h): 0.2 mg/dL
- Ca (3 h): 10.8 mg/dL
- Cl (3 h): 105.6 meq/L
- DBIL (3 h): 0.01 mg/dL
- GLC (3 h): 177.2 mg/dL
- IP (3 h): 9.8 mg/dL
- K (3 h): 4.1 meq/L
- LDH (3 h): 69.6 IU/L
- Na (3 h): 142 meq/L
- PL (3 h): 154.4 mg/dL
- RALB (3 h): 2.4 g/dL
- TBIL (3 h): 0.056 mg/dL
- TC (3 h): 83 mg/dL
- TG (3 h): 71.6 mg/dL
- TP (3 h): 5.2 g/dL
- gamma-GTP (3 h): 1.2 IU/L
- TERMINAL_BW (6 h): 195 g
- APTT (6 h): 16.4 s
- Bas (6 h): 0%
- Eos (6 h): 0.2%
- Fbg (6 h): 310.6 mg/dL
- Hb (6 h): 12.9 g/dL
- Ht (6 h): 39.3%
- Lym (6 h): 53.8%
- MCH (6 h): 21.1 pg
- MCHC (6 h): 32.8%
- MCV (6 h): 64.3 fL
- Mono (6 h): 2%
- Neu (6 h): 43.2%
- PT (6 h): 15.3 s
- Plat (6 h): 115.3 x10_4/uL
- RBC (6 h): 612.4 x10_4/ul
- Ret (6 h): 8.4%
- WBC (6 h): 82.5 x10_2/uL
- KIDNEY_L (6 h): 0.8 g
- KIDNEY_R (6 h): 0.9 g
- KIDNEY_TOTAL (6 h): 1.7 g
- LIVER (6 h): 8.3 g
- A/G (6 h): 0.9
- ALP (6 h): 1365.6 IU/L
- ALT (6 h): 36.4 IU/L
- AST (6 h): 69 IU/L
- BUN (6 h): 7.8 mg/dL
- CRE (6 h): 0.2 mg/dL
- Ca (6 h): 10.8 mg/dL
- Cl (6 h): 105.2 meq/L
- DBIL (6 h): 0.006 mg/dL
- GLC (6 h): 171.4 mg/dL
- IP (6 h): 10 mg/dL
- K (6 h): 3.7 meq/L
- LDH (6 h): 69.2 IU/L
- Na (6 h): 143.4 meq/L
- PL (6 h): 139.8 mg/dL
- RALB (6 h): 2.5 g/dL
- TBIL (6 h): 0.06 mg/dL
- TC (6 h): 80.4 mg/dL
- TG (6 h): 31.6 mg/dL
- TP (6 h): 5.3 g/dL
- gamma-GTP (6 h): 1.2 IU/L
- TERMINAL_BW (9 h): 195.3 g
- APTT (9 h): 16.7 s
- Bas (9 h): 0%
- Eos (9 h): 0.2%
- Fbg (9 h): 364.8 mg/dL
- Hb (9 h): 13 g/dL
- Ht (9 h): 40.1%
- Lym (9 h): 68.2%
- MCH (9 h): 21.4 pg
- MCHC (9 h): 32.4%
- MCV (9 h): 66.1 fL
- Mono (9 h): 2.2%
- Neu (9 h): 28.6%
- PT (9 h): 15.3 s
- Plat (9 h): 97.2 x10_4/uL
- RBC (9 h): 607 x10_4/ul
- Ret (9 h): 8.6%
- WBC (9 h): 61.4 x10_2/uL
- KIDNEY_L (9 h): 0.9 g
- KIDNEY_R (9 h): 0.9 g
- KIDNEY_TOTAL (9 h): 1.8 g
- LIVER (9 h): 8.4 g
- A/G (9 h): 0.9
- ALP (9 h): 1554.2 IU/L
- ALT (9 h): 38.8 IU/L
- AST (9 h): 71.4 IU/L
- BUN (9 h): 8.2 mg/dL
- CRE (9 h): 0.2 mg/dL
- Ca (9 h): 10.6 mg/dL
- Cl (9 h): 105.2 meq/L
- DBIL (9 h): 0.008 mg/dL
- GLC (9 h): 169.6 mg/dL
- IP (9 h): 10.5 mg/dL
- K (9 h): 3.7 meq/L
- LDH (9 h): 47.8 IU/L
- Na (9 h): 142.4 meq/L
- PL (9 h): 154.2 mg/dL
- RALB (9 h): 2.5 g/dL
- TBIL (9 h): 0.066 mg/dL
- TC (9 h): 84 mg/dL
- TG (9 h): 39.6 mg/dL
- TP (9 h): 5.4 g/dL
- gamma-GTP (9 h): 1 IU/L
- TERMINAL_BW (24 h): 211.6 g
- APTT (24 h): 17.8 s
- Bas (24 h): 0%
- Eos (24 h): 1%
- Fbg (24 h): 353.2 mg/dL
- Hb (24 h): 13.1 g/dL
- Ht (24 h): 40.4%
- Lym (24 h): 79.4%
- MCH (24 h): 21.5 pg
- MCHC (24 h): 32.4%
- MCV (24 h): 66.4 fL
- Mono (24 h): 3%
- Neu (24 h): 15.8%
- PT (24 h): 15.4 s
- Plat (24 h): 108.1 x10_4/uL
- RBC (24 h): 608.8 x10_4/ul
- Ret (24 h): 8.2%
- WBC (24 h): 71.1 x10_2/uL
- KIDNEY_L (24 h): 0.9 g
- KIDNEY_R (24 h): 0.9 g
- KIDNEY_TOTAL (24 h): 1.8 g
- LIVER (24 h): 10.2 g
- A/G (24 h): 0.8
- ALP (24 h): 1816.8 IU/L
- ALT (24 h): 43.2 IU/L
- AST (24 h): 70.8 IU/L
- BUN (24 h): 15.4 mg/dL
- CRE (24 h): 0.2 mg/dL
- Ca (24 h): 11.3 mg/dL
- Cl (24 h): 106 meq/L
- DBIL (24 h): 0.008 mg/dL
- GLC (24 h): 185.4 mg/dL
- IP (24 h): 8.7 mg/dL
- K (24 h): 4.5 meq/L
- LDH (24 h): 86.4 IU/L
- Na (24 h): 142.2 meq/L
- PL (24 h): 158.6 mg/dL
- RALB (24 h): 2.7 g/dL
- TBIL (24 h): 0.042 mg/dL
- TC (24 h): 81.8 mg/dL
- TG (24 h): 80.2 mg/dL
- TP (24 h): 5.8 g/dL
- gamma-GTP (24 h): 1 IU/L
